According to publication PMC5515969, “Effects of 31 FDA approved small-molecule kinase inhibitors on isolated rat liver mitochondria” (Archives of Toxicology, 2016):

Key:
[1] = system: isolated rat liver mitochondria; test: Mitochondrial toxicity, any endpoint, intact mitochondria and submitochondrial particles; type: biochemical; details: any endpoint
Description: Rats were anesthetized by an intraperitoneal injection of Nembutal and the liver perfused with PBS to remove the blood. The liver was then cut into small pieces and homogenized using a Dounce type homogenizer in the ice-cold isolation buffer (IB) containing 200 mM sucrose, 10 mM Tris-MOPS, 1 mM EGTA (pH 7.4). The sample was then centrifuged at 600g for 10 min. The supernatant was further centrifuged at 7500g for 10 min, and the pellets was washed once with the IB and centrifuged again at 7500g for 10 min to collect mitochondria. […] Before drug treatment, the protein concentration was adjusted to 1 mg/ml using appropriate buffer. […] Briefly, mitochondrial and cytosolic fractions from four different preparations using four rats were diluted using the Laemmli protein loading buffer and subject to SDS-PAGE with 4–20% gradient gels. The proteins were blotted to PVDF membranes and detected using antibodies against GAPDH, ATP5A, UQCRC2, SDHB, and NDUFB8.
The aliquoted stock solutions were kept for less than one month and each tube was used only once. The KIs were added to the mitochondria at 1:1000 dilutions. […] The Cmax data were from clinical trials which used FDA recommend dosages, route of administration, and duration. […] The final concentration of DMSO for drug treatment was always 0.1%, and control treatments were 0.1% DMSO.

RCC IV = RCC IV activity in submitochondrial particles; type: biochemical, rat; design: key to RCC IV at 50XCmax / RCC IV at 100XCmax: activity relative to DMSO-treated controls (control set as 1 = 100%); details: 50XCmax; DMSO treated samples set as 1; in %
Description: (§1) KIs were incubated with submitochondrial particles (1 mg/ml) for 15 min and then RCC I–V activities measured. […] The activities of DMSO-treated samples (controls) were set as 1. […] The difference between the activity from rotenone-containing buffer and rotenone-absent buffer was considered as RCC I activity. […] For measuring RCC I/V and II activity, the changes in absorbance at 340 and 600 nm, respectively, were determined every 1 min for 6 min. For measuring RCC III and RCC IV, the changes in absorbance at 550 nm were measured every 10 s for 2 min.

RCC I = RCC I activity in submitochondrial particles; type: biochemical, rat; design: key to RCC I at 10XCmax / RCC I at 100XCmax / RCC I at 50XCmax / RCC I at 30XCmax / RCC I at 20XCmax: activity relative to DMSO-treated controls (control set as 1 = 100%); details: 10XCmax; DMSO treated samples set as 1
How it was run: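 First, submitochondrial particles (1 mg/ml) are incubated with inhibitor for 15 min. Next, complex activities are followed spectrophotometrically, with RCC I taken as the difference between buffers lacking and containing rotenone. Finally, activities are expressed relative to DMSO controls set at 1.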

RCC V = RCC V activity in submitochondrial particles; type: biochemical, rat; details: DMSO treated samples set as 1; as to RCC V at 5XCmax: key: 0 indicates that the drug had no effects (negative)
How it was run: (§2)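 Abs 340 nm (I/V) or 600 nm (II), 1-min reads × 6 min; 550 nm (III, IV), 10-s reads × 2 min. RCC I = rotenone-free minus rotenone rate. DMSO control = 1.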

RCC III = RCC III activity in submitochondrial particles; type: biochemical, rat; design: key to RCC III at 100XCmax: activity relative to DMSO-treated controls (control set as 1 = 100%); details: 100XCmax
Description: as §1

[2] = system: isolated rat liver mitochondria; details: positive control alamethicin treated samples
[3] = system: isolated rat liver mitochondria; test: Mitochondrial inner membrane potential (MMP), Rhodamine 123; type: biochemical; details: difference in signal between KI and DMSO treated samples at the end of experiments
From the text: Fig. 3 KI effects on mitochondrial inner membrane potential (MMP). […] In a, c, data are means and standard derivations from three separate experiments. *p < 0.05 as compared to DMSO-treated samples at the end of experiments. In b, data are means of two independent experiments

RCC II = molecular target: T1, RCC II (Rattus norvegicus, UniProt P21913+Q641Z9+Q6PCT8+Q920L2); test: RCC II activity in submitochondrial particles; type: biochemical; design: key: activity relative to DMSO-treated controls (control set as 1 = 100%); details: DMSO treated samples set as 1
T1 construct: Submitochondrial particles were prepared by subjecting the intact mitochondria to three successive freeze–thaw cycles; from tissue; host or cells: rat liver mitochondria, used as submitochondrial particles
How it was run: as §2

[4] = system: isolated rat liver mitochondria; test: Mitochondrial swelling (absorbance at 535 nm); type: biochemical; details: difference in signal between KI and DMSO treated samples at the end of experiments; as to Swelling 5XCmax: key: 0 indicates that the drug had no effects (negative)
[5] = system: isolated rat liver mitochondria; test: Mitochondrial ROS production (CM-H2DCFDA); details: DMSO treated samples set as 1
[6] = system: isolated rat liver mitochondria; test: Mitochondrial oxygen consumption (glutamate/malate or succinate driven, state 4 and state 3); type: biochemical; details: DMSO treated samples set as 1; as to State 3 respiration driven by succinate at 10XCmax: key: 0 indicates that the drug had no effects (negative); as to State 3 respiration driven by succinate at 1XCmax: key: 0 indicates that the drug had no effects (negative)
How it was run: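 Oxygen uptake on glutamate/malate or on succinate defined state 4; ADP added 3 min later gave state 3. Mitochondria isolated from rat liver by differential centrifugation, adjusted to 1 mg/ml and pretreated 5 min with inhibitor (0.1% DMSO final). Values relative to DMSO control, set to 1.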

T1 sequence (Q920L2 35-656): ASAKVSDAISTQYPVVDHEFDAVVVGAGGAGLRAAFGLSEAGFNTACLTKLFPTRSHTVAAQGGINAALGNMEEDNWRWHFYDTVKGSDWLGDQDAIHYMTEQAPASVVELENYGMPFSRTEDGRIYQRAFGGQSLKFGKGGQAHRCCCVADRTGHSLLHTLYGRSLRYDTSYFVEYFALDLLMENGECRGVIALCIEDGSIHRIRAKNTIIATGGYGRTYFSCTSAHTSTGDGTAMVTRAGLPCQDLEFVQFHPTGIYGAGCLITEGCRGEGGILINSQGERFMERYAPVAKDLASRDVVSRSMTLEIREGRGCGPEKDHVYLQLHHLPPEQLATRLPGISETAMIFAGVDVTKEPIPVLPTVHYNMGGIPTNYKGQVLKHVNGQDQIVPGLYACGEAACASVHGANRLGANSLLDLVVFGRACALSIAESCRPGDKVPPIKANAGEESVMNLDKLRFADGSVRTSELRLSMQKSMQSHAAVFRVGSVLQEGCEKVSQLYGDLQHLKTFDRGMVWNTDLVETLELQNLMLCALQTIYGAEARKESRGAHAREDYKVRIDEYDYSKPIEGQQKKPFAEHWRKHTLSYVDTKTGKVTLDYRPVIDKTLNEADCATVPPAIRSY
T1 sequence (P21913 31-282): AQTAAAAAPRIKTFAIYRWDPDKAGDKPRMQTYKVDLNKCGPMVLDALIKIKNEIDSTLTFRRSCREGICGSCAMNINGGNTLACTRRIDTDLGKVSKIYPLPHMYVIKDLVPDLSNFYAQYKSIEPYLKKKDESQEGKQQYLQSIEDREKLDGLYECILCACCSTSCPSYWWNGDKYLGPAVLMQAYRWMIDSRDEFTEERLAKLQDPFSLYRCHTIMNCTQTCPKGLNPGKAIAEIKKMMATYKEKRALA
T1 sequence (Q641Z9 1-169): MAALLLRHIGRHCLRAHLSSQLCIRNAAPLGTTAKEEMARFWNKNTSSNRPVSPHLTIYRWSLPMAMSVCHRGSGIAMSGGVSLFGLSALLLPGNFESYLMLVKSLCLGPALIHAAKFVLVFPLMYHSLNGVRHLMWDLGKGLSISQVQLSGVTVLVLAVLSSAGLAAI
T1 sequence (Q6PCT8 57-159): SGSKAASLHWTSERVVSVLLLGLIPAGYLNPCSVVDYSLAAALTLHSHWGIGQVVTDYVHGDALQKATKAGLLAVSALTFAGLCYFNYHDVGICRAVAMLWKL

C=CC(=O)N1CCC[C@@H](n2nc(-c3ccc(Oc4ccccc4)cc3)c3c(N)ncnc32)C1 [Ibrutinib]
0: RCC IV at 50XCmax (RCC IV) | RCC I at 10XCmax (RCC I) | RCC V at 5XCmax (RCC V; 5XCmax) | RCC V at 50XCmax (RCC V; 50XCmax) | RCC III at 100XCmax (RCC III) | Cytochrome c release 1XCmax ([2]; 1XCmax) | Cytochrome c release 2.5XCmax ([2]; 2.5XCmax) | Cytochrome c release 5XCmax ([2]; 5XCmax) | Cytochrome c release 10XCmax ([2]; 10XCmax) | Cytochrome c release 20XCmax ([2]; 20XCmax) | Cytochrome c release 30XCmax ([2]; 30XCmax) | Cytochrome c release 50XCmax ([2]; 50XCmax) | Cytochrome c release 100XCmax ([2]; 100XCmax) | MMP measured by Rhodamine 123 at 1XCmax ([3]; 1XCmax) | MMP measured by Rhodamine 123 at 2.5XCmax ([3]; 2.5XCmax) | MMP measured by Rhodamine 123 at 5XCmax ([3]; 5XCmax) | MMP measured by Rhodamine 123 at 10XCmax ([3]; 10XCmax) | MMP measured by Rhodamine 123 at 20XCmax ([3]; 20XCmax) | MMP measured by Rhodamine 123 at 30XCmax ([3]; 30XCmax) | MMP measured by Rhodamine 123 at 50XCmax ([3]; 50XCmax) | MMP measured by Rhodamine 123 at 100XCmax ([3]; 100XCmax) | RCC II at 1.0XCmax (RCC II; 1.0XCmax) | RCC II at 2.5XCmax (RCC II; 2.5XCmax) | RCC II at 5XCmax (RCC II; 5XCmax) | RCC II at 10XCmax (RCC II; 10XCmax) | RCC II at 20XCmax (RCC II; 20XCmax) | RCC II at 30XCmax (RCC II; 30XCmax) | RCC II at 50XCmax (RCC II; 50XCmax) | RCC II at 100XCmax (RCC II; 100XCmax) | Swelling 1XCmax ([4]; 1XCmax) | Swelling 2.5XCmax ([4]; 2.5XCmax) | Swelling 5XCmax ([4]; 5XCmax) | Swelling 10XCmax ([4]; 10XCmax) | Swelling 20XCmax ([4]; 20XCmax) | Swelling 30XCmax ([4]; 30XCmax) | Swelling 50XCmax ([4]; 50XCmax) | Swelling 100XCmax ([4]; 100XCmax) | ROS measured by CM-H2DCFDA at 1XCmax ([5]; 1XCmax) | ROS measured by CM-H2DCFDA at 2.5XCmax ([5]; 2.5XCmax) | ROS measured by CM-H2DCFDA at 5XCmax ([5]; 5XCmax) | ROS measured by CM-H2DCFDA at 10XCmax ([5]; 10XCmax) | ROS measured by CM-H2DCFDA at 20XCmax ([5]; 20XCmax) | ROS measured by CM-H2DCFDA at 30XCmax ([5]; 30XCmax) | ROS measured by CM-H2DCFDA at 50XCmax ([5]; 50XCmax) | ROS measured by CM-H2DCFDA at 100XCmax ([5]; 100XCmax) | State 3 respiration driven by succinate at 1XCmax ([6]; 1XCmax) | State 4 respiration driven by succinate at 1XCmax ([6]; 1XCmax) | State 3 respiration driven by succinate at 2.5XCmax ([6]; 2.5XCmax) | State 4 respiration driven by succinate at 2.5XCmax ([6]; 2.5XCmax) | State 3 respiration driven by succinate at 5XCmax ([6]; 5XCmax) | State 4 respiration driven by succinate at 5XCmax ([6]; 5XCmax) | State 3 respiration driven by succinate at 10XCmax ([6]; 10XCmax) | State 4 respiration driven by succinate at 10XCmax ([6]; 10XCmax) | State 3 respiration driven by succinate at 20XCmax ([6]; 20XCmax) | State 4 respiration driven by succinate at 20XCmax ([6]; 20XCmax) | State 3 respiration driven by succinate at 30XCmax ([6]; 30XCmax) | State 4 respiration driven by succinate at 30XCmax ([6]; 30XCmax) | State 3 respiration driven by succinate at 50XCmax ([6]; 50XCmax) | State 4 respiration driven by succinate at 50XCmax ([6]; 50XCmax) | State 3 respiration driven by succinate at 100XCmax ([6]; 100XCmax) | State 4 respiration driven by succinate at 100XCmax ([6]; 100XCmax)
50 fold Cmax: lowest concentration causing significant mitochondrial toxicity [1]
